Experimental findings from PubChem BioAssay AID624491 (Broad Institute, 2012) are described below.

Calls of active or inactive are those of the source.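 Rule for the calls: active = fitted curve crossing a set activation limit at or below the highest valid dose tested; inconclusive = flat fit at 30 to 70% activation, or poor fit; inactive = the rest, including signal decreases.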

In the assay the test system is D54 ERlucT glycosylation luciferase reporter, luminescence, 24 h. Briefly: blockers of NLG process in reporter cells – D54 ERlucT cells, luminescence, cherry-picks, dose response (AID 624491).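 Note: signal gain reflects blocked N-linked glycosylation of a luciferase reporter; actives raise luciferase signal so AC26 marks activators of the reporter.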

`Cc1ccccc1NC(=O)Cn1nnc(C(=O)NCc2ccco2)c1N`: the AC26 was 1770 nM. Turning to `O=C(CN1C(=O)NC(c2ccccc2)(c2ccccc2)C1=O)Nc1ccc(N2CCOCC2)cc1`, the AC26 is 4200 nM. As to `Cn1cnc([N+](=O)[O-])c1S(=O)(=O)c1cccc(Cl)c1`, the AC26 is 1200 nM. Consider `COc1ccccc1C(=O)Nc1nnc(CCc2ccccc2)s1`, for which the AC26 is 3720 nM. Next, `c1ccc(CNc2ncnc3c2cnn3-c2ccccc2)cc1`: 8130 nM; `CCNc1nc(NC(C)(C)C)nc(SC(C(C)=O)C(C)=O)n1`: 208 nM; `O=C1NC(=O)N(Cc2ccco2)C(=O)/C1=C/C=C/c1ccco1`: 953 nM. Consider `CN(Cc1ccccc1)c1nc2c(c(=O)n(C)c(=O)n2C)n1CCCc1ccccc1`, for which the AC26 was 981 nM. With `COc1ccc(/C=N/NC(=O)c2ccccc2OCc2ccccc2)c(OC)c1`, the AC26 was 1400 nM.

Turning to `CCOc1ccc(S(=O)(=O)NCc2cccnc2)cc1NC(=O)c1ccccc1F`, the AC26 is 9740 nM.

With `COc1ccccc1-c1nnc2sc(-c3cc4ccccc4o3)nn12`, the AC26 was 63.7 nM.

For the molecule `Cc1nnc(NC(=O)CSc2nc(C(C)C)nc3ccccc23)s1`, the AC26 was 971 nM. The result for `CCOC(=O)c1c(C)[nH]c(C(=O)N/N=C/c2ccc(OC)c(OC)c2)c1C` reads 2070 nM. For the molecule `c1ccc(C2=Nn3c(nnc3-c3n[nH]c4c3CCC4)SC2)cc1`, the AC26 was 4020 nM. Take `O=C(CN1CCC(O)(c2cccc(F)c2)CC1)NCCc1c[nH]c2ccccc12`: the AC26 was 1150 nM. The result for `C=CCN1c2ccccc2[C@]23C[C@@H](C(=O)OC)N(C(=O)c4ccc(Br)cc4)C2=NC(C(=O)OC)=C(C(=O)OC)[C@H]13` reads 6060 nM; that for `Cn1nc(-c2ccccc2)c(CSc2ccccc2Cl)c1Cl`, 6120 nM; that for `O=C(c1ccc(Cl)c(S(=O)(=O)N2CCCCC2)c1)N1CCN(Cc2ccccc2)CC1`, 4150 nM. On to `COc1cc(CN2CCc3ccccc3C2)ccc1O`, for which the AC26 was 696 nM. For `COc1ccc(-c2cnc3c(NC=O)cc(-c4ccccc4)cn23)cc1OC`, the AC26 was 97.1 nM.

Consider `Cc1ccc(C)c(OCC(O)CN2CCN(CCN3C(=O)c4cccc5cccc(c45)C3=O)CC2)c1` (configuration not stated), for which the AC26 was 755 nM. Take `OCC1OC(n2cnc3c(SCc4ccccc4)ncnc32)C(O)C1O` (configuration not stated): the AC26 was 1050 nM.

For the molecule `CCOC(=O)N1CCN(c2c(NCc3ccc(F)cc3)c(=O)c2=O)CC1`, the AC26 was 8400 nM. Regarding `COc1ccccc1-c1c(C#N)c(N)nc2c1CCc1ccccc1-2`, the AC26 was 592 nM. As for `CC1(C(=O)NCCC(F)(F)F)Cc2c(-c3cccc(C(F)(F)F)c3)ccnc2O1` (configuration not stated), the AC26 is 15200 nM. In the case of `COc1ccc2c(c1)C(=O)N1[C@H]3c4cc(Cl)ccc4OC[C@@H]3[C@H](c3ccccc3)[C@]1(C)C(=O)N2`, the AC26 was 1010 nM. Regarding `Cc1ccc(C(=O)NC(=C(Cl)Cl)S(=O)(=O)c2ccc(C)cc2)cc1`, the AC26 was 2550 nM.

As for `CC1CCCCN1C(=O)NC12CC3CC(CC(C3)C1)C2` (configuration not stated), the AC26 was 4170 nM.

For `COc1cccc(C2=CC(c3cccs3)n3nnnc3N2)c1` (configuration not stated), the AC26 is 700 nM. Take `Cc1ccc(Nc2nnc(SCC(=O)Nc3ncc(S(=O)(=O)c4ccc([N+](=O)[O-])cc4)s3)s2)cc1`: the AC26 was 9030 nM.

On to `CCn1c2ccccc2c2cc(NC(=O)CNCc3ccccc3OC)ccc21`, for which the AC26 is 1360 nM. Next, `COc1ccc2c(c1)[C@H]1[C@H](CO2)[C@H](c2ccccc2)[C@]2(C)C(=O)Nc3cc(F)c(F)cc3C(=O)N12`: 544 nM; `CCN(CC)S(=O)(=O)c1cccc(NC(=O)CN2C(=O)NC3(CCC(C)CC3)C2=O)c1` (configuration not stated): 876 nM. Regarding `Cc1ccc(C(=O)NC(=C(Cl)Cl)S(=O)(=O)c2ccc(Cl)cc2)cc1`, the AC26 was 3660 nM. With `COc1cc(/C=N/NC(=O)c2ccc(-c3ccccc3)cc2)cc(OC)c1OC`, the AC26 was 1350 nM. With `Cn1cc(C(=O)N/N=C/C(Br)=C/c2ccccc2)ccc1=O`, the AC26 is 2850 nM. `CCOc1ccc(N2C(=O)Nc3ccccc3C2(O)C(=O)N2CCN(c3ccccn3)CC2)cc1` (configuration not stated): the AC26 is 880 nM. For `CC(=O)c1ccc(N2CCN(C(=O)c3cccc(Oc4ccccc4)c3)CC2)cc1`, the AC26 was 1140 nM. With `COc1ccc2nc3ccccc3nc2c1NC(=O)c1ccccc1Cl`, the AC26 is 11400 nM.

Regarding `CCc1ccc(C(=O)Nc2ccc3c(c2)n(C)c(=O)n3C)cc1`, the AC26 was 6220 nM. Consider `CCN(CC)CCCNc1ccc2ncn3c4ccc(O)cc4c(=O)c1c23`, for which the AC26 is 92.6 nM. The result for `Cn1cnc([N+](=O)[O-])c1S(=O)(=O)Oc1ccccc1` reads 1420 nM. Turning to `Cc1cccc(C(=O)Oc2ccccc2/C=N/NC(=O)c2ccc(NC(=O)C(C)(C)C)cc2)c1`, the AC26 is 1550 nM. For the molecule `Cc1cc(NC(=O)COC(=O)c2ccc(S(=O)(=O)N3CCCc4ccccc43)cc2)no1`, the AC26 is 665 nM.

Take `CC#CCN1c2ccccc2[C@]23C[C@@H](C(=O)OC)N(C(=O)c4cc(C)oc4C)C2=NC(C(=O)OC)=C(C(=O)OC)[C@H]13`: the AC26 was 1790 nM. As for `CCOC(=O)c1c(NC(C)=O)sc2c(OCCN(CC)CC)c(Br)ccc12`, the AC26 was 2690 nM.

As for `Cc1cc(-n2c(SCC(=O)NCCC3=CCCCC3)nc3n[nH]c(C)c3c2=N)ccc1Cl`, the AC26 was 4030 nM. The result for `O=C(NCC1CCCO1)c1cc(-c2ccc(F)cc2)no1` (configuration not stated) reads 5760 nM. Take `C=C(C)[C@@]12OC3(c4ccccc4)O[C@@H]1C1[C@@H]4O[C@]4(CO)[C@@H](O)[C@]4(O)C(=O)C(C)=C[C@H]4[C@@]1(O3)[C@H](C)[C@H]2OC(=O)/C=C/C=C/c1ccccc1` (some centres not stated): the AC26 was < 1.2 nM. For `Cc1cc(C)nc(/N=C(\N)Nc2ccc(CC(=O)OC(C)C)cc2)n1`, the AC26 is 5890 nM. The result for `CCOC(=O)c1ccc(N=c2sc(C(=O)OC)cc(=O)n2Cc2ccco2)cc1` reads 3830 nM; that for `Cc1ccc(S(=O)(=O)[N-]c2nc3ccccc3nc2-n2cc[n+](Cc3ccccc3)c2)cc1`, 118 nM.

Take `CNc1ccc(Br)cc(C(=O)/C=C/c2ccc(Cl)cc2Cl)c1=O`: the AC26 was 8890 nM. Take `Cc1ccc(Sc2c(CO)c(-c3ccccc3)nn2C)cc1`: the AC26 was 341 nM.

Turning to `O=C1NC(=O)N(Cc2ccccc2)C(=O)/C1=C/C=C/c1ccco1`, the AC26 is 1080 nM.

Regarding `Cc1cc(NS(=O)(=O)c2ccc(NC(=O)COc3c(C)cc(Br)cc3C)cc2)no1`, the AC26 was 550 nM. As for `O=C(N/N=C/c1cccs1)c1cc(-c2cccc3ccccc23)n[nH]1`, the AC26 is 4700 nM. `COCCNC(=S)N1CCc2cc(OC)c(OC)cc2C1c1cccs1` (configuration not stated): the AC26 is 455 nM. Next, `COc1ccc2c(c1)[C@H]1[C@H](CO2)[C@H](c2ccccc2)[C@]2(C)C(=O)Nc3ccccc3C(=O)N12`: 278 nM. `C=CCOc1ccc2nc(NC(=O)OC)[nH]c2c1`: the AC26 is 414 nM. Consider `COc1ccc(/C=N\NC(=O)c2sccc2C)cc1Cn1nc(C)cc1C`, for which the AC26 is 507 nM. As for `CCn1c(=O)cc(SCC(=O)NCCCN2CCN(c3ccc(F)cc3)CC2)c2ccccc21`, the AC26 is 9830 nM. Turning to `COc1cc(F)ccc1-c1csc(C(NC(C)=O)c2ccc(F)c(F)c2)n1` (configuration not stated), the AC26 was 681 nM.

Regarding `CCOc1cc(/C=C/C(=O)c2ccc3c(c2)OCCO3)ccc1OCC(=O)N(C)C`, the AC26 is 3700 nM.

For `COc1ccc(C(=O)C=Cc2ccc(OCc3ccccc3)c(OC)c2)cc1OC`, the AC26 is 2690 nM. On to `CC(=O)c1cccc(-c2ccnc3c2CC(C(=O)NCc2cccs2)O3)c1` (configuration not stated), for which the AC26 was 1070 nM. As to `COc1ccc(-c2oc3cc(O)c(OC)c(O)c3c(=O)c2OC)cc1O`, the AC26 is 246 nM.

Turning to `CCOC(=O)N1CCc2cc(OC)c(OC)c3c2c1cc1cc(OC)c(OC)cc13`, the AC26 was 11100 nM.

As to `Cc1ccc2c(c1)c1ccc3c(c1n2C)C(=O)C=CC3=O`, the AC26 is 948 nM. For `COc1ccccc1N1CCN(c2ccc3c(c2)S(=O)(=O)c2cccc(C(=O)NCC4CC4)c2C3=O)CC1`, the AC26 was 4550 nM. Regarding `O=C(N/N=C/c1ccco1)c1cc(-c2ccncc2)nc2ccccc12`, the AC26 was 285 nM. Turning to `CCOC(=O)c1[nH]c(C)c(C(=O)Nc2cc(OC)ccc2OC)c1C`, the AC26 was 322 nM. Turning to `COc1ccccc1CCNCc1ccc(OC)c(OCc2ccccc2)c1`, the AC26 was 994 nM. On to `CCCn1nc(C(=O)N2CC(=O)Nc3ccccc32)c2ccccc2c1=O`, for which the AC26 was 4890 nM.

Turning to `CC(=O)c1ccc(Nc2nc(-c3sc(C)nc3C)cs2)cc1`, the AC26 is 40.5 nM. Next, `Cc1cc(C)cc(NC(=O)CCn2c(=O)c3cccn3c3ccccc32)c1`: 4950 nM.

For the molecule `Brc1ccc(C2=Nn3c(nnc3-c3n[nH]c4c3CCC4)SC2)cc1`, the AC26 was 407 nM. Next, `Cc1ccc2c(c1)[C@H]1[C@H](CO2)[C@H](c2ccccc2)[C@]2(C)C(=O)Nc3ccc(Br)cc3C(=O)N12`: 1430 nM; `COc1ccc(Nc2nc(-c3c(C)nc4ncccn34)cs2)cc1`: 17.2 nM. As for `COC(=O)c1ccccc1NC(=O)Cn1nnc(-c2ccc(OC)cc2)n1`, the AC26 was > 19500 nM (inactive).

`CN(C)S(=O)(=O)c1ccc(N2CCCC2)c(C(=O)Nc2nccs2)c1`: the AC26 is 549 nM. Regarding `CN(C)CCN1C(=O)c2cccc3cc([N+](=O)[O-])cc(c23)C1=O`, the AC26 is 73.5 nM. With `CCOC(=O)c1cnc2c(ccc3ccccc32)c1NCCCN(C)C`, the AC26 was 2050 nM. As for `c1ccc(N=Nc2ccc3cccccc2-3)cc1`, the AC26 is 2060 nM. As for `COc1cc2c(C(=O)N3CCN(c4cccc(Cl)c4)CC3)cn(C)c(=O)c2cc1OC`, the AC26 is 3400 nM. Next, `COc1cc2c(cc1OC)C(=O)N1[C@H]3c4cc(C)ccc4OC[C@@H]3[C@H](c3ccccc3)[C@]1(C)C(=O)N2`: 387 nM; `COc1ccccc1C1CC(=O)Nc2cc3c(cc21)OCCO3` (configuration not stated): 10500 nM. Next, `O=C(COc1ccccc1CNCc1ccccc1)Nc1ccccc1`: 850 nM; `COc1ccc(CCNc2c3ccccc3nc3ccccc23)cc1OC`: 1040 nM. Next, `Cc1c(C(=O)C(=O)N2c3ccc(F)cc3CCC2C)c2ccccc2n1C` (configuration not stated): 5780 nM.

Regarding `CCCNc1nc2ccccc2n2c(C)nnc12`, the AC26 is 2980 nM. For the molecule `Cc1cccn2c(=O)c3cc(C(=O)NCCN4CCOCC4)c(=N)n(CCc4ccccc4)c3nc12`, the AC26 is 8760 nM.
